Reference: patent US20230285405A1, “Pharmaceuticals for Treating or Preventing Nidoviruses and Picornaviruses” (priority 2020, published 2023)
Counter-ions that a name gives are not always drawn. Like-named read-outs stand apart in the source and are kept apart here.

Tests used:
OC43 = assay: Drug screening: OC43 nucleoprotein staining in infected A549-mRuby cells; type: cell-based, human beta coronavirus OC43; settings: 10 μM drug; for activity at 10 µM: Betacoronavirus 1, OC43, 96 h; for activity at 10 µM / OC43_mean / OC43_1: % staining of OC43 in screen repeat #1 / OC43_2: % staining of OC43 in screen repeat #2: MOI 0.3, 4 days
Method in brief: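 Repurposing screen: drugs at 10 μM final added 1 h after OC43 infection (MOI 0.3) of H2B-mRuby A549 cells, 4-day incubation at 33° C. Cell counts imaged at day 0 and day 4; nucleoprotein staining per cell normalized to untreated infected wells, hit threshold >3 SD in duplicate screens, non-toxic.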

A549-mRuby cells = assay: Drug screening: effect on cell growth (cell number day 4 / day 0); settings: 10 μM drug; for toxic_1 / Growth_1: number of cells at day 4 divided by number of cells at day 0: repeat #1; for toxic_2 / Growth_2: number of cells at day 4 divided by number of cells at day 0: repeat #2
Method in brief: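 Growth was scored as day 4/day 0 cell count from images of OC43-infected (MOI 0.3) A549-mRuby nuclear-reporter cells. Compounds were added at 10 μM final after a 1 h infection at 33° C, followed by 4 days of culture at 33° C in two independent screens.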

[1] = OC43 staining normalized to no-drug controls, mean of the two screen repeats, read-out: OC43_mean
[2] = normalized to no-drug controls in the same plate, repeat #1, read-out: OC43_1: % staining of OC43 in screen repeat #1
[3] = normalized to no-drug controls in the same plate, repeat #2, read-out: OC43_2: % staining of OC43 in screen repeat #2
[4] = OC43 staining normalized to no-drug controls, mean of the two screen repeats
[5] = normalized to no-drug controls in the same plate, repeat #1
[6] = normalized to no-drug controls in the same plate, repeat #2

| Structure (SMILES) | hit_1 (OC43; repeat #1) | hit_2 (OC43; repeat #2) | activity at 10 µM (OC43; [1]) [%] | activity at 10 µM (OC43; [2]) [%] | activity at 10 µM (OC43; [3]) [%] | toxic_1 (A549-mRuby cells) | Growth_1: number of cells at day 4 divided by number of cells at day 0 (A549-mRuby cells; hydrochloride) | toxic_2 (A549-mRuby cells) | Growth_2: number of cells at day 4 divided by number of cells at day 0 (A549-mRuby cells; hydrochloride) | Growth_1: number of cells at day 4 divided by number of cells at day 0 (A549-mRuby cells) | Growth_2: number of cells at day 4 divided by number of cells at day 0 (A549-mRuby cells) | OC43_mean (OC43; [4]) [%] | OC43_1: % staining of OC43 in screen repeat #1 (OC43; [5]) [%] | OC43_2: % staining of OC43 in screen repeat #2 (OC43; [6]) [%] | OC43_1: % staining of OC43 in screen repeat #1 (OC43; normalized to no-drug controls in the same plate, repeat #1, ditosylate monohydrate) [%] | Growth_1: number of cells at day 4 divided by number of cells at day 0 (A549-mRuby cells; ditosylate monohydrate) | Growth_2: number of cells at day 4 divided by number of cells at day 0 (A549-mRuby cells; ditosylate monohydrate) |
| --- | --- | --- | --- | --- | --- | --- | --- | --- | --- | --- | --- | --- | --- | --- | --- | --- | --- |
| COc1cc2ncnc(Nc3ccc(F)c(Cl)c3)c2cc1OCCCN1CCOCC1 [Gefitinib hydrochloride] | 1 | 1 | 23.9 | 20 | 27.8 | 0 | 3.5 | 0 | 3.3 | – | – | – | – | – | – | – | – |
| N=C(N)N/N=C/c1c(Cl)cccc1Cl [Guanabenz Acetate] | 1 | 1 | 34.6 | 31.1 | 38.1 | 0 | – | 0 | – | 5.3 | 4.4 | – | – | – | – | – | – |
| CCN(CCO)CCCC(C)Nc1ccnc2cc(Cl)ccc12 (stereo not drawn) [Hydroxychloroquine Sulfate] | 1 | 1 | 16.2 | 17.8 | 14.6 | 0 | – | 0 | – | 5.1 | 4.9 | – | – | – | – | – | – |
| CS(=O)(=O)CCNCc1ccc(-c2ccc3ncnc(Nc4ccc(OCc5cccc(F)c5)c(Cl)c4)c3c2)o1.Cc1ccc(S(=O)(=O)O)cc1.Cc1ccc(S(=O)(=O)O)cc1 [Lapatinib (GW-572016) Ditosylate] | 1 | 1 | – | – | – | 0 | – | 0 | – | 5.0 | 5.9 | 24.8 | 17.6 | 32.0 | – | – | – |
| CS(=O)(=O)CCNCc1ccc(-c2ccc3ncnc(Nc4ccc(OCc5cccc(F)c5)c(Cl)c4)c3c2)o1 [Lapatinib ditosylate monohydrate] | 1 | 1 | 16.6 | – | 9.5 | 0 | – | 0 | – | – | – | – | – | – | 23.8 | 4.2 | 4.2 |
| COc1ccc(CN2CCN(C(c3ccc(F)cc3)c3ccc(F)cc3)CC2)c(OC)c1OC.Cl.Cl [Lomerizine 2HCl] | 1 | 1 | – | – | – | 0 | – | 0 | – | 4.7 | 5.3 | 39.9 | 56.5 | 23.3 | – | – | – |
| CNCCCC12CCC(c3ccccc31)c1ccccc12 [Maprotiline HCl] | 1 | 1 | 26 | 27 | 25.1 | 0 | – | 0 | – | 3.5 | 3.1 | – | – | – | – | – | – |
| CN1CCCCC1CCN1c2ccccc2Sc2ccc([S+](C)[O-])cc21 (stereo not drawn) [Mesoridazine Besylate] | 1 | 1 | 20.3 | 15.6 | 25 | 0 | – | 0 | – | 4.7 | 4.7 | – | – | – | – | – | – |
| C[C@@H]1[C@H](O)[C@@H](C)/C=C/C=C/CC/C=C/C=C/C=C/C=C/C(O[C@H]2O[C@H](C)[C@@H](O)[C@H](N)[C@@H]2O)CC2O[C@](O)(CC(O)C(O)CCC(O)CC(O)CC(O)CC(=O)O[C@H]1C)CC(O)C2C(=O)O (stereo partly drawn) [Nystatin (Fungicidin), Nystatin] | 1 | 1 | – | – | – | 0 | – | 0 | – | 4.6 | 5.9 | 23.3 | 27.8 | 18.8 | – | – | – |
